For one assay, the target named is Adenosine A2A Receptor (Homo sapiens, UniProt P29274). The assay can be described thus: Activity assay of adenosine receptor modulators, Adenosine A2A Receptor (Table 1). Particulars: cAMP; read-out: A2AR cAMP IC50. The assay is classed as biochemical. Here is the method:
(§1) Compounds (e.g., adenosine receptor modulators) were tested for its biological activity. The assay results in Table 1 indicate (+ means >1 μM; ++ means 100 nM to 1 μM; +++ means <100 nM).

The next assay concerns the target T1, A1R (Homo sapiens, UniProt P30542).
T1 sequence (P30542 1-326): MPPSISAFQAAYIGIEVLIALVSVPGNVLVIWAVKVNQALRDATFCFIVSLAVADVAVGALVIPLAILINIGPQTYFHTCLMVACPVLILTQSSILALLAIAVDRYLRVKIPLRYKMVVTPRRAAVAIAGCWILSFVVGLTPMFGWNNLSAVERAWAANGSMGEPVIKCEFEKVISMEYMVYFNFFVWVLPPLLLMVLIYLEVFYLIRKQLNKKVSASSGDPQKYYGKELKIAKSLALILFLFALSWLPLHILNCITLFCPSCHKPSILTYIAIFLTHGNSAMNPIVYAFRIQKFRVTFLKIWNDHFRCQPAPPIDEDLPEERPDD
The assay can be described thus: Activity assay of adenosine receptor modulators, A1R cAMP (Table 1). The assay is classed as cell-based. Here is the method:
as §1

The next assay deals with T2, Adenosine A2B Receptor (Homo sapiens, UniProt P29275).
T2 sequence (P29275 1-332): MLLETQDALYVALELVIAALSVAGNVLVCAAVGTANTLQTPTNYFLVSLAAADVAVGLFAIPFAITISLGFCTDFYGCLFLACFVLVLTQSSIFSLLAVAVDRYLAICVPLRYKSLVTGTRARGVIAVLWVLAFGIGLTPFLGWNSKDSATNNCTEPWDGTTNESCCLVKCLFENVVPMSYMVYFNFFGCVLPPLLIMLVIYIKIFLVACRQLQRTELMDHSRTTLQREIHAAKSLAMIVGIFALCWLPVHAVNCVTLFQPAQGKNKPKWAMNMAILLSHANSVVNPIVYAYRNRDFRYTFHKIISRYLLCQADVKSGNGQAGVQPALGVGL
As to the kind of experiment: Activity assay of adenosine receptor modulators, Adenosine A2B Receptor (Table 1). The assay is classed as biochemical. Conditions: cAMP; read-out: A2BR cAMP IC50. How it is done: as §1

The next assay addresses T3, A3R (Homo sapiens, UniProt P0DMS8).
T3 sequence (P0DMS8 1-318): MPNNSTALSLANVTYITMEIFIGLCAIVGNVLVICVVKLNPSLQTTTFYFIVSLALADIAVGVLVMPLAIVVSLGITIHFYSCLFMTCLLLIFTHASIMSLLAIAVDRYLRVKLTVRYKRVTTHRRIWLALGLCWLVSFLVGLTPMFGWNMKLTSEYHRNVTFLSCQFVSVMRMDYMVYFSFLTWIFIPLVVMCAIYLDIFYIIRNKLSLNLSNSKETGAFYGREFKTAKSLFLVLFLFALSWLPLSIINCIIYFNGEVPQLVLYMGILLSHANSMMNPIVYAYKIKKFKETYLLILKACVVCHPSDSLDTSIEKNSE
As to the kind of experiment: Activity assay of adenosine receptor modulators, A3R cAMP (Table 1). The class given is cell-based. Here is the method: as §1

Structures are written as SMILES.

Broadly, the IC50 is the concentration that gives 50% inhibition.

Chain of Adenosine A2A Receptor (P29274 whole entry): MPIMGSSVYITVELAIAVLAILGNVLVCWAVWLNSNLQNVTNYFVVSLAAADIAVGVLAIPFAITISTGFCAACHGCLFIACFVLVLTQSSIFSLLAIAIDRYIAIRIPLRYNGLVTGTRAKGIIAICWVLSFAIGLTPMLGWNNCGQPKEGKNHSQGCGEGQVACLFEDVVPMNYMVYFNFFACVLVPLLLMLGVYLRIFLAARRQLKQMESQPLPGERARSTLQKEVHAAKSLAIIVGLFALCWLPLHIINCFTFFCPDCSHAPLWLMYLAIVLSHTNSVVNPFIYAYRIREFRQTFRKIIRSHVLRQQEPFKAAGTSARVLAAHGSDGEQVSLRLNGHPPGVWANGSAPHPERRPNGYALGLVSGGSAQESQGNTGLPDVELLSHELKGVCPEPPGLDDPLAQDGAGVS

With `CC(=O)NC[C@@H]1CCN(C(=O)c2nc(N[C@@H](C)c3cncc(F)c3)nc3nc(C)sc23)C1` [Example 52, N—(((S)-1-(5-(((S)-1-(5-Fluoropyridin-3-yl)ethyl)amino)-2-methylthiazolo[4,5-d]pyrimidine-7-carbonyl)pyrrolidin-3-yl)methyl)acetamide], the IC50 on Adenosine A2A Receptor was above 1000 nM; at A1R, above 1000 nM; at Adenosine A2B Receptor, below 100 nM; against A3R, above 1000 nM.
Take `Cc1nc2nc(N[C@@H](C)c3cncc(F)c3)nc(C(=O)N3CC(NC(=O)C4CCC4)C3)c2s1` [Example 56, (S)—N-(1-(5-((1-(5-Fluoropyridin-3-yl)ethyl)amino)-2-methylthiazolo[4,5-d]pyrimidine-7-carbonyl)azetidin-3-yl)cyclobutanecarboxamide]: the IC50 at Adenosine A2A Receptor is below 100 nM; against A1R it was above 1000 nM; on Adenosine A2B Receptor it was below 100 nM; on A3R, below 100 nM.
In the case of `Cc1nc2nc(N[C@@H](C)c3cccnc3)nc(C(=O)N3CC[C@H](O)C3)c2s1` [Example 18, ((S)-3-Hydroxypyrrolidin-1-yl)(2-methyl-5-(((S)-1-(pyridin-3-yl)ethyl)amino)thiazolo[4,5-d]pyrimidin-7-yl)methanone], the concentration for half-maximal inhibition (IC50) at Adenosine A2A Receptor was above 1000 nM; at A1R, above 1000 nM; on Adenosine A2B Receptor it was below 100 nM; on A3R it was above 1000 nM.
Consider `CC(=O)NC1CN(C(=O)c2nc(N[C@@H](C)c3cncc(F)c3)nc3nc(C)sc23)C1` [Example 28, (S)—N-(1-(5-((1-(5-Fluoropyridin-3-yl)ethyl)amino)-2-methylthiazolo[4,5-d]pyrimidine-7-carbonyl)azetidin-3-yl)acetamide], for which the half-inhibitory concentration (IC50) at Adenosine A2A Receptor is 100 to 1000 nM; at A1R, above 1000 nM; on Adenosine A2B Receptor, below 100 nM; on A3R, above 1000 nM.
In the case of `Cc1nc2nc(N[C@@H](C)c3cncc(F)c3)nc(C(=O)NC[C@H]3CCOC3)c2s1` [Example 14, 5-(((S)-1-(5-Fluoropyridin-3-yl)ethyl)amino)-2-methyl-N—(((R)-tetrahydrofuran-3-yl)methyl)thiazolo[4,5-d]pyrimidine-7-carboxamide], the IC50 at Adenosine A2A Receptor was above 1000 nM; against A1R, 100 to 1000 nM; at Adenosine A2B Receptor it was below 100 nM; against A3R, above 1000 nM.
`Cc1nc2nc(N[C@@H](C)c3cncc(F)c3)nc(C(=O)NCCc3ccc(O)cc3)c2s1` [Example 21, (S)-5-((1-(5-Fluoropyridin-3-yl)ethyl)amino)-N-(4-hydroxyphenethyl)-2-methylthiazolo[4,5-d]pyrimidine-7-carboxamide]: the IC50 at Adenosine A2A Receptor is above 1000 nM; on A1R, above 1000 nM; at Adenosine A2B Receptor it was below 100 nM; on A3R, above 1000 nM.
On to `Cc1nc2nc(N[C@@H](C)c3cccnc3)nc(C(=O)N3CC(NC(=O)C4CCC4)C3)c2s1` [Example 75, N-[1-[2-Methyl-5-[[(S)-1-(3-pyridyl)ethyl]amino]thiazolo[4,5-d]pyrimidine-7-carbonyl]azetidin-3-yl]cyclobutanecarboxamide], for which the IC50 on Adenosine A2A Receptor is below 100 nM; at A1R, above 1000 nM; on Adenosine A2B Receptor, 100 to 1000 nM; against A3R, above 1000 nM.
Regarding `Cc1nc2nc(N[C@@H](C)c3cncc(F)c3)nc(C(=O)N3CC(NC(=O)NC4CCCC4)C3)c2s1` [Example 60, (S)-1-Cyclopentyl-3-(1-(5-((1-(5-fluoropyridin-3-yl)ethyl)amino)-2-methylthiazolo[4,5-d]pyrimidine-7-carbonyl)azetidin-3-yl)urea], the IC50 was below 100 nM at Adenosine A2A Receptor, above 1000 nM on A1R, below 100 nM at Adenosine A2B Receptor and 100 to 1000 nM at A3R.
As for `Cc1cc(C)cc(C(=O)NC2CN(C(=O)c3nc(N[C@@H](C)c4cccnc4)nc4nc(C)sc34)C2)c1` [Example 83, 3,5-Dimethyl-N-[1-[2-methyl-5-[[(S)-1-(3-pyridyl)ethyl]amino]thiazolo[4,5-d]pyrimidine-7-carbonyl]azetidin-3-yl]benzamide], the 50% inhibitory concentration (IC50) on Adenosine A2A Receptor was below 100 nM; against A1R it was above 1000 nM; at Adenosine A2B Receptor, below 100 nM; at A3R, above 1000 nM.
Consider `Cc1nc2nc(N[C@@H](C)c3cncc(F)c3)nc(C(=O)N3CC(NC(=O)C4(C)CC4)C3)c2s1` [Example 54, (S)—N-(1-(5-((1-(5-Fluoropyridin-3-yl)ethyl)amino)-2-methylthiazolo[4,5-d]pyrimidine-7-carbonyl)azetidin-3-yl)-1-methylcyclopropane-1-carboxamide], for which the IC50 on Adenosine A2A Receptor is below 100 nM; on A1R, above 1000 nM; at Adenosine A2B Receptor, below 100 nM; against A3R, below 100 nM.
For the compound `Cc1nc2nc(N[C@@H](C)c3cncc(F)c3)nc(C(=O)NCCC3CCNCC3)c2s1` [Example 32, (S)-5-((1-(5-Fluoropyridin-3-yl)ethyl)amino)-2-methyl-N-(2-(piperidin-4-yl)ethyl)thiazolo[4,5-d]pyrimidine-7-carboxamide], the IC50 on Adenosine A2A Receptor is above 1000 nM; at A1R, above 1000 nM; at Adenosine A2B Receptor, below 100 nM; at A3R, above 1000 nM.
As for `COCCNC(=O)c1nc(N[C@@H](C)c2cncc(F)c2)nc2nc(C)sc12` [Example 25, (S)-5-((1-(5-Fluoropyridin-3-yl)ethyl)amino)-N-(2-methoxyethyl)-2-methylthiazolo[4,5-d]pyrimidine-7-carboxamide], the IC50 on Adenosine A2A Receptor was 100 to 1000 nM; against A1R, above 1000 nM; at Adenosine A2B Receptor, below 100 nM; at A3R, above 1000 nM.
Consider `CC(=O)NC[C@H]1CCN(C(=O)c2nc(N[C@@H](C)c3cncc(F)c3)nc3nc(C)sc23)C1` [Example 53, N—(((R)-1-(5-(((S)-1-(5-Fluoropyridin-3-yl)ethyl)amino)-2-methylthiazolo[4,5-d]pyrimidine-7-carbonyl)pyrrolidin-3-yl)methyl)acetamide], for which the IC50 at Adenosine A2A Receptor is above 1000 nM; against A1R, above 1000 nM; on Adenosine A2B Receptor, 100 to 1000 nM; against A3R it was above 1000 nM.
Consider `Cc1nc2nc(N[C@@H](C)c3cncc(F)c3)nc(C(=O)NC[C@@H]3CCOC3)c2s1` [Example 13, 5-(((S)-1-(5-Fluoropyridin-3-yl)ethyl)amino)-2-methyl-N—(((S)-tetrahydrofuran-3-yl)methyl)thiazolo[4,5-d]pyrimidine-7-carboxamide], for which the IC50 on Adenosine A2A Receptor was 100 to 1000 nM; against A1R, 100 to 1000 nM; at Adenosine A2B Receptor, below 100 nM; on A3R, 100 to 1000 nM.
As for `Cc1nc2nc(N[C@@H](C)c3ccccn3)nc(C(=O)N3CCC3)c2s1` [Example 8, (S)-Azetidin-1-yl(2-methyl-5-((1-(pyridin-2-yl)ethyl)amino)thiazolo[4,5-d]pyrimidin-7-yl)methanone], the IC50 on Adenosine A2A Receptor was 100 to 1000 nM; on A1R, above 1000 nM; on Adenosine A2B Receptor it was below 100 nM; at A3R, 100 to 1000 nM.
On to `Cc1nc2nc(N[C@@H](C)c3ccccn3)nc(C(=O)N3CC(NC(=O)Nc4ccccc4)C3)c2s1` [Example 78, 1-[1-[2-Methyl-5-[[(S)-1-(2-pyridyl)ethyl]amino]thiazolo[4,5-d]pyrimidine-7-carbonyl]azetidin-3-yl]-3-phenyl-urea], for which the IC50 was below 100 nM on Adenosine A2A Receptor, above 1000 nM on A1R, 100 to 1000 nM at Adenosine A2B Receptor and above 1000 nM against A3R.
As to `COC[C@H]1CCN(C(=O)c2nc(N[C@@H](C)c3cncc(F)c3)nc3nc(C)sc23)C1` [Example 48, (5-(((S)-1-(5-Fluoropyridin-3-yl)ethyl)amino)-2-methylthiazolo[4,5-d]pyrimidin-7-yl)((S)-3-(methoxymethyl)pyrrolidin-1-yl)methanone], the IC50 at Adenosine A2A Receptor was 100 to 1000 nM; at A1R, above 1000 nM; on Adenosine A2B Receptor it was below 100 nM; at A3R, above 1000 nM.
`Cc1nc2nc(N[C@@H](C)c3cncc(F)c3)nc(C(=O)N3CC(NC(=O)NC(C)(C)C)C3)c2s1` [Example 57, (S)-1-(tert-Butyl)-3-(1-(5-((1-(5-fluoropyridin-3-yl)ethyl)amino)-2-methylthiazolo[4,5-d]pyrimidine-7-carbonyl)azetidin-3-yl)urea]: the IC50 on Adenosine A2A Receptor is below 100 nM; against A1R, above 1000 nM; on Adenosine A2B Receptor, below 100 nM; at A3R, 100 to 1000 nM.
